Measurements reported in patent US8114862B2, “TGR5 modulators and methods of use thereof” (Intercept Pharmaceuticals, Inc., priority 2008, dated 2012).
Where “and” joins values, the source holds several entries; their conditions need not be identical. Identical values can stand only once.

How the values were obtained:
[1] = Octanol/water partition coefficient (shake-flask); assay type: physicochemical; conditions: pH 8
CAR = biological target: T1, CAR (Homo sapiens, UniProt Q14994); test: CAR coactivator recruitment (Lanthascreen); assay type: biochemical; conditions: read-out: CAR Activation EC50
T1 construct: purchased Invitrogen
T1 sequence (Q14994 109-352 limits assumed): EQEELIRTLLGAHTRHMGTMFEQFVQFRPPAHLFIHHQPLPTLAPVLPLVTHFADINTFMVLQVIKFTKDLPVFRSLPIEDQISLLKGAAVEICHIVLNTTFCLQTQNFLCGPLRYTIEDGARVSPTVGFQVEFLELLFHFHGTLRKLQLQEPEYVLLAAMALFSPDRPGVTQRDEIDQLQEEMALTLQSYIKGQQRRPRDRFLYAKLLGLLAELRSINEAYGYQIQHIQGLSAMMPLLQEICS
Protocol: CAR: Coactivator Recruitment (Lanthascreen)
Lanthascreen assay (Invitrogen) was used for nulear receptor selectivity assay. The kit uses a terbium-labeled anti-GST antibody, a fluorescein-labeled coactivator peptide, and a NR ligand-binding domain that is tagged with glutathione-S-transferase (GST) in a homogenous mix-and-read assay format. […] Following 1 hour incubation in the dark, TR-FRET measurements were made in the Envision. […] The data was analyzed using GraphPad Prism using the sigmoidal curve equation with variable slope to obtain EC50 values.

ileal explants = test: GLP-1 release ex vivo from ileal explants; parameters: species or system mouse; conditions: 1 h exposure, explants from 18-weeks HF-fed TGR5-Tg male mice
Protocol: . Pellicciari et al., 2007, J. Med. Chem. 50, 4265-4268). cAMP production was performed as described (Sato et al., 2008, J. Med. Chem. 51, 1831; Watanabe et al., 2006, Nature 439, 484). […] ATP/ADP ratio and GLP-1 release were measured according to the manufacturers' instructions (Biovision and Millipore, respectively). Primary brown adipocytes were prepared as previously described (Watanabe et al., 2006, Nature 439, 484), and ileal explants were prepared according to an established method (Cima et al., 2004, J. Exp. Med. 200, 1635-1646).
Plasma parameters and hepatic and fecal lipid content were measured as described (Mataki et al., 2007, Mol. Cell. Biol. 27, 8330-8339). Hematoxylin and eosin (H&E), Sirius red, and oil red 0 staining were performed as described (Mark al., 2007, Curr. Protoc. Mol. Biol. Chapter 29, Unit 29B, 24), and micrographs were taken on wide-field microscopes (Leica) with a CCD camera. For pancreatic sections, islets were sized and counted from four HE-stained alternated sections spaced of […] using ImageJ software (five animals per group). […] Insulin was extracted after O/N incubation at −20° C. in acid ethanol and measured by ELISA on PBS-diluted samples according to the manufacturer's instructions (Mercodia). GLP-1 release was measured in vitro, ex vivo, and in vivo according to methods known in the art.

STC-1 cells = test: STC-1 cell experiments (Cox activity, oxygen consumption, ATP/ADP, GLP-1 release); assay type: cell-based, mouse
HF-fed C57BL/6J mice = test: Dietary intervention in HF-fed C57BL/6J mice (Example 20); assay type: in vivo, mouse
Protocol: Age-matched male mice were used for all experiments. Genetically engineered mouse models (GEMMs), i.e., TGR5-Tg and TGR5^−/− mice, were generated as described in the Supplemental Data. […] Protoc. Mol. Chapter. […] Protoc. Mol. Biol. Chapter 29, Unit 29A, 22). […] Plasma GLP-1 levels were measured by ELISA (Millipore) on blood collected by retro-orbital puncture.

primary brown adipocytes = test: O2 consumption in primary brown adipocytes; assay type: cell-based, mouse; conditions: treated for 12 hr, 3 μM
in vitro [2] = conditions: human, HepG2 cells
in vitro [3] = conditions: human, s9
VDR = biological target: T2, VDR (Homo sapiens, UniProt P11473); test: VDR coactivator recruitment assay
T2 sequence (P11473 127-423 limits assumed): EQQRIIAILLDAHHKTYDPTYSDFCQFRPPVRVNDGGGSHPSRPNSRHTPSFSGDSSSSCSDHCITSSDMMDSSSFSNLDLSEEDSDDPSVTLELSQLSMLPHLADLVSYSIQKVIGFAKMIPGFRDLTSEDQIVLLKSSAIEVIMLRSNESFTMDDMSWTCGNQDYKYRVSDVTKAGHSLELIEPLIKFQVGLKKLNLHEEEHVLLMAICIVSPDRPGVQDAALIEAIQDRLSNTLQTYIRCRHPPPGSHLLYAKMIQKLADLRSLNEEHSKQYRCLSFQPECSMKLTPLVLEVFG

[4] = Biliary secretion and metabolism in bile fistula rat, id and iv infusion; conditions: for Conc. / Secretion: rat bile; for fraction unbound at 4 h: rat, in vivo, 1 μmol/kg/min
[5] = duodenal infusion 75-135 min, time 90 min
[6] = duodenal infusion 75-135 min, time 120 min
[7] = duodenal infusion 75-135 min, time 150 min
[8] = duodenal infusion 75-135 min, time 180 min
[9] = duodenal infusion 75-135 min, time 210 min
[10] = duodenal infusion 75-135 min, time 240 min
[11] = duodenal infusion 75-135 min, time 270 min
[12] = duodenal infusion 75-135 min, time 300 min
[13] = femoral infusion 75-135 min, time 90 min
[14] = femoral infusion 75-135 min, time 120 min
[15] = femoral infusion 75-135 min, time 150 min
[16] = femoral infusion 75-135 min, time 180 min
[17] = femoral infusion 75-135 min, time 210 min
[18] = femoral infusion 75-135 min, time 240 min
[19] = femoral infusion 75-135 min, time 270 min

CC[C@H]1[C@@H](O)[C@@H]2[C@H](C[C@H](O)[C@]3(C)[C@@H]([C@H](C)C[C@H](C)C(=O)O)CC[C@@H]23)[C@@]2(C)CC[C@@H](O)C[C@@H]12 [Ih3e, 6α-ethyl-(23S)-methyl-3α,7α,12α trihydroxy-5β-cholan-24-oic acid]
LogPA- (1-octanol-water partition coefficient, ionized species) [1]: 1.4 and 1.44
EC50 (CAR): > 250 µM
GLP-1 release ex vivo (ileal explants): dramatically and dose-dependently induces the release of GLP-1 ex vivo
Cox activity (STC-1 cells): cAMP-dependent increase in Cox activity
cellular oxygen consumption (STC-1 cells): increase in cellular oxygen consumption
impact on GLP-1 release (STC-1 cells; prevented by RNA interference or MDL-12-330A): enhanced by TGR5 overexpression
expression level of classical target genes of FXR in the liver (CYP7A1, BSEP) (HF-fed C57BL/6J mice; 30 mg/kg/day): complete absence of changes
plasma levels (HF-fed C57BL/6J mice; 30 mg/kg/day admixed with diet): within the range of those of CA and 3-muricholic acid
increase in liver and fat pad mass (HF-fed C57BL/6J mice; HF-fed): attenuated
plasma triglycerides and nonesterified fatty acids (NEFAs) (HF-fed C57BL/6J mice; HF-fed mice): significant drop
fat mass (HF-fed C57BL/6J mice; HF-fed, relative to HF-fed controls): sharp reduction in fat mass
liver fibrosis (HF-fed C57BL/6J mice; Sirius red staining): absence of liver fibrosis
attenuation of body weight gain (HF-fed C57BL/6J mice; after 10 weeks of treatment, relative to HF-fed controls): about 15%
plasma levels of liver enzymes (HF-fed C57BL/6J mice; compared to HF-fed controls): markedly reduced
respiratory quotient (HF-fed C57BL/6J mice; dark period): significantly reduced
energy expenditure (O2 consumption and CO2 production) (HF-fed C57BL/6J mice; indirect calorimetry): enhanced energy expenditure
gene expression profiling of BAT (HF-fed C57BL/6J mice; mouse, in vivo): increase of several mitochondrial genes involved in energy expenditure
liver steatosis (HF-fed C57BL/6J mice; oil red O staining, liver lipid content): reduction in liver steatosis
O2 consumption after FCCP (primary brown adipocytes): significantly more pronounced
EC50 at 4 h (in vitro [2]): > 1000 µM
half-life (in vitro [3]): 12.1 h
VDR Activation EC50 (VDR): No activity
compound secreted into the bile in its unconjugated form ([4]; after intravenous or intraduodenal infusion): more than 90%
biliary secretion ([4]; after iv administration): efficient
recovery in bile after id administration ([4]; id vs iv): slightly lower than the recovery after iv administration
Conc. [4, 5]: 7 µM
Secretion [4, 5]: 0.0003 µmol/kg/min
Conc. [4, 6]: 690 µM
Secretion [4, 6]: 0.057 µmol/kg/min
Conc. [4, 7]: 1880 µM
Secretion [4, 7]: 0.167 µmol/kg/min
Conc. [4, 8]: 1290 µM
Secretion [4, 8]: 0.150 µmol/kg/min
Conc. [4, 9]: 790 µM
Secretion [4, 9]: 0.077 µmol/kg/min
Conc. [4, 10]: 390 µM
Secretion [4, 10]: 0.033 µmol/kg/min
Conc. [4, 11]: 270 µM
Secretion [4, 11]: 0.026 µmol/kg/min
Conc. [4, 12]: 200 µM
Secretion [4, 12]: 0.015 µmol/kg/min
Conc. [4, 13]: 1900 µM
Secretion [4, 13]: 0.1 µmol/kg/min
Conc. [4, 14]: 3100 µM
Secretion [4, 14]: 0.23 µmol/kg/min
Conc. [4, 15]: 3400 µM
Secretion [4, 15]: 0.31 µmol/kg/min
Conc. [4, 16]: 2300 µM
Secretion [4, 16]: 0.2 µmol/kg/min
Conc. [4, 17]: 1060 µM
Secretion [4, 17]: 0.105 µmol/kg/min
Conc. [4, 18]: 550 µM
Secretion [4, 18]: 0.049 µmol/kg/min
Conc. [4, 19]: 270 µM
Secretion [4, 19]: 0.018 µmol/kg/min
fraction unbound at 4 h [4]: 0.94 ± 0.06
fraction unbound at 4 h ([4]; iv): 0.93
